We go through 55 compounds from patent US9745291B2, “PRMT5 inhibitors containing a dihydro- or tetrahydroisoquinoline and uses thereof” (Epizyme, Inc., priority 2012, dated 2017).

This assay has as its target PRMT5/MEP50 (Homo sapiens (Human), UniProt O14744). The experiment in a line: PRMT5 Biochemical Assay (PRMT5/MEP50 enzyme assay on peptide substrate, 3H-SAM Flashplate). As to conditions: PRMT5 biochemical assay; read-out: Biochemical IC50. From the text: S-adenosylmethionine (SAM), S-adenosylhomocysteine (SAH), bicine, KCl, Tween20, dimethylsulfoxide (DMSO), bovine skin gelatin (BSG), and Tris(2-carboxyethyl)phosphine hydrochloride solution (TCEP) were purchased from Sigma-Aldrich at the highest level of purity possible. ^3H-SAM was purchase from American Radiolabeled Chemicals with a specific activity of 80 Ci/mmol. 384-well streptavidin Flashplates were purchased from PerkinElmer.
Peptide representative of human histone H4 residues 1-15 was synthesized with a C-terminal linker-affinity tag motif and a C-terminal amide cap by 21st Century Biochemicals. […] The sequence was Ac-[…][K-Biot]-amide (SEQ ID NO.:3).
Full-length human MEP50 (NM_024102) clone was amplified from a human testis cDNA library incorporating a 5′ sequence encoding a 6-histidine tag (MHHHHHH)(SEQ ID NO.:5) fused directly to Arg 2 of MEP50. The amplified genes were sublconed into pENTR/D/TEV (Life Technologies) and subsequently transferred by Gateway™ attL×attR recombination to pDEST8 baculvirus expression vector (Life Technologies).
Recombinant baculovirus and Baculovirus-Infected Insect Cells (BIIC) were generated according to Bac-to-Bac kit instructions (Life Technologies) and Wasilko, 2006, respectively. Protein over-expression was accomplished by infecting exponentially growing Spodoptera frugiperda (SF9) cell culture at 1.2×10^6 cell/ml with a 5000 fold dilution of BIIC stock. Infections were carried out at 27° C. for 72 hours, harvested by centrifugation, and stored at −80° C. for purification.
Flag-PRMT5/6His-MeP50 was eluted with 300 mM Imidazole in the same buffer. […] Reference: Wasilko, D. J. and S. E. Lee: “TIPS: titerless infected-cells preservation and scale-up” Bioprocess J., 5 (2006), pp. 29-32.
General Procedure for PRMT5/MEP50 Enzyme Assays on Peptide Substrates.
The assays were all performed in a buffer consisting of 20 mM Bicine (pH=7.6), 1 mM TCEP, 0.005% BSG, and 0.002% Tween20, prepared on the day of use. Compounds in 100% DMSO (1 ul) were spotted into a polypropylene 384-well V-bottom plates (Greiner) using a Platemate Plus outfitted with a 384-channel head (Thermo Scientific). DMSO (1 ul) was added to Columns 11, 12, 23, 24, rows A-H for the maximum signal control and 1 ul of SAH, a known product and inhibitor of PRMT5/MEP50, was added to columns 11, 12, 23, 24, rows I-P for the minimum signal control. A cocktail (40 ul) containing the PRMT5/MEP50 enzyme and the peptide was added by Multidrop Combi (Thermo-Fisher). The compounds were allowed to incubate with PRMT5/MEP50 for 30 min at 25 degrees Celsius, then a cocktail (10 ul) containing ^3H-SAM was added to initiate the reaction (final volume=51 ul).

Sequence of PRMT5/MEP50 (O14744 other isoform, or with tags, fused parts or gaps): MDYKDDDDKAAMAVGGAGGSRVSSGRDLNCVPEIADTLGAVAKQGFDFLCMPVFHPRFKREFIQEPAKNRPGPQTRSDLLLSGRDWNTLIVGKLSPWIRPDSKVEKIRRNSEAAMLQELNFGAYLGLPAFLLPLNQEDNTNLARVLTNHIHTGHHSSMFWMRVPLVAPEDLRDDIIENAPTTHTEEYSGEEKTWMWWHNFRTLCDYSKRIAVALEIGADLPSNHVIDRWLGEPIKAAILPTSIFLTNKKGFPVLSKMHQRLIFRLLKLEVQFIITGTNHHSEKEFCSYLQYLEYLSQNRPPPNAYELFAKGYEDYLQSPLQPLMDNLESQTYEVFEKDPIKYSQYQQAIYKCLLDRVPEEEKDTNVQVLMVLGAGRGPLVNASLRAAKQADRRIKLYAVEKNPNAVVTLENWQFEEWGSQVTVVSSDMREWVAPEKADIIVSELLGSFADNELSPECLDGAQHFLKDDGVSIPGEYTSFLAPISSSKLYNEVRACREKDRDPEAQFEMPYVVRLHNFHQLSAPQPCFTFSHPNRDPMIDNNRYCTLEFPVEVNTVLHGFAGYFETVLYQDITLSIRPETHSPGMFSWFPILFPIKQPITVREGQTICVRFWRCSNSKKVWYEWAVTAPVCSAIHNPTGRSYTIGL
Sequence of PRMT5/MEP50 (Q9BQA1 other isoform, or with tags, fused parts or gaps partner): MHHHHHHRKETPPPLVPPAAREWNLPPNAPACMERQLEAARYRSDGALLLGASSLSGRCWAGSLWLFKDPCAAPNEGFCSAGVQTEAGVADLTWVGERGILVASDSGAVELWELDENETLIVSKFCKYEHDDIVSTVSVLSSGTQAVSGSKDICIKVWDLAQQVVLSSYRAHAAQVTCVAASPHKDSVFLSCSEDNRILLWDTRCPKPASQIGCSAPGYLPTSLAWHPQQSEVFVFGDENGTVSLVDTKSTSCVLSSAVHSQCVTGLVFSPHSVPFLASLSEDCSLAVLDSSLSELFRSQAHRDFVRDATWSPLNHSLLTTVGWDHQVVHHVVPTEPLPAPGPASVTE

As for `O=C(COc1ccccc1C1CCNCC1)NCC(O)CN1CCc2ccccc2C1` (stereo not shown) [Compound 103], the IC50 (commonly the midpoint of a concentration-inhibition curve) was less than 100 nM. On to `CN(C)c1ccc2cccc(OCC(=O)NC[C@@H](O)CN3CCc4ccccc4C3)c2n1` [Compound 105], for which the half-inhibitory concentration (IC50) is less than 100 nM. `O=C(COc1ccccc1S(=O)(=O)N1CCNCC1)NCC(O)CN1CCc2ccccc2C1` (stereo not shown) [Compound 107]: the half-maximal inhibitory concentration (IC50) was less than 100 nM.

On to `CN1CCN(S(=O)(=O)c2ccccc2OCC(=O)NCC(O)CN2CCc3ccccc3C2)CC1` (stereo not shown) [Compound 108], for which the IC50 was less than 100 nM. Then `CN(C)S(=O)(=O)c1ccccc1OCC(=O)NCC(O)CN1CCc2ccccc2C1` (stereo not shown) [Compound 109], with less than 100 nM. With `O=C(COc1ccccc1S(=O)(=O)N1CCCC1)NCC(O)CN1CCc2ccccc2C1` (stereo not shown) [Compound 110] the figure was less than 100 nM; with `O=C(COc1ccccc1S(=O)(=O)N1CCC(O)C1)NCC(O)CN1CCc2ccccc2C1` (stereo not shown) [Compound 111], less than 100 nM. With `O=C(COc1cccc2c1CNCC2)NCC(O)CN1CCc2ccccc2C1` (stereo not shown) [Compound 119] the figure was less than 100 nM. As to `CNS(=O)(=O)c1ccccc1OCC(=O)NCC(O)CN1CCc2ccccc2C1` (stereo not shown) [Compound 123], the IC50 was less than 100 nM. As for `CC(Oc1ccccc1S(N)(=O)=O)C(=O)NCC(O)CN1CCc2ccccc2C1` (stereo not shown) [Compound 126], the IC50 was greater than 50000 nM. For `CC(=O)Nc1cccnc1OCC(=O)NCC(O)CN1CCc2ccccc2C1` (stereo not shown) [Compound 128], the IC50 is greater than 50000 nM. As for `CN1CCCC(c2ccccc2OCC(=O)NCC(O)CN2CCc3ccccc3C2)C1` (stereo not shown) [Compound 130], the IC50 is less than 100 nM.

`CN(C)c1cccnc1OCC(=O)NCC(O)CN1CCc2ccccc2C1` (stereo not shown) [Compound 133]: the IC50 is greater than 10000 nM. Regarding `CS(=O)(=O)Nc1ncccc1OCC(=O)NCC(O)CN1CCc2ccccc2C1` (stereo not shown) [Compound 139], the IC50 was greater than 10000 nM. As to `O=C(COc1cccc2cccnc12)NCC(O)CN1Cc2ccccc2C(F)(F)C1` (stereo not shown) [Compound 144], the IC50 is greater than 10000 nM. Then `Cc1cn(C)c2cccc(OCC(=O)NCC(O)CN3CCc4ccccc4C3)c12` (stereo not shown) [Compound 146], with less than 100 nM; and `CC(=O)Nc1ncccc1OCC(=O)NCC(O)CN1CCc2ccccc2C1` (stereo not shown) [Compound 147], with greater than 10000 nM; and `CC(=O)Nc1cncc(OCC(=O)NCC(O)CN2CCc3ccccc3C2)c1` (stereo not shown) [Compound 148], with greater than 10000 nM. As for `O=C(COc1ccccc1S(=O)(=O)N1CCOCC1)NCC(O)CN1CCc2ccccc2C1` (stereo not shown) [Compound 149], the IC50 was less than 100 nM.

Consider `Cn1cnc(-c2ccccc2OCC(=O)NCC(O)CN2CCc3ccccc3C2)c1` (stereo not shown) [Compound 153], for which the IC50 was less than 100 nM.

As to `O=C(COc1cccc2cnncc12)NCC(O)CN1CCc2ccccc2C1` (stereo not shown) [Compound 154], the IC50 was in the range of 1000 to 10000 nM. Take `CN(c1ccccc1OCC(=O)NCC(O)CN1CCc2ccccc2C1)S(C)(=O)=O` (stereo not shown) [Compound 155]: the IC50 is less than 100 nM. Turning to `Cn1cncc1-c1ccccc1OCC(=O)NCC(O)CN1CCc2ccccc2C1` (stereo not shown) [Compound 156], the IC50 is 1000 to 10000 nM. Then `CC(Oc1ccccc1NS(C)(=O)=O)C(=O)NCC(O)CN1CCc2ccccc2C1` (stereo not shown) [Compound 157], with 1000 to 10000 nM; and `Cc1nn(C)c2cccc(OCC(=O)NCC(O)CN3CCc4ccccc4C3)c12` (stereo not shown) [Compound 158], with less than 100 nM; and `Cn1ncc2ccc(OCC(=O)NC[C@H](O)CN3CCc4ccccc4C3)cc21` [Compound 159], with less than 100 nM. In the case of `Cn1ncc2ccc(OCC(=O)NC[C@@H](O)CN3CCc4ccccc4C3)cc21` [Compound 160], the IC50 fell in the range of 101 to 1000 nM.

In the case of `O=C(COc1cncc(C(=O)N2CCOCC2)c1)NCC(O)CN1CCc2ccccc2C1` (stereo not shown) [Compound 161], the IC50 was 101 to 1000 nM. Take `CC(=O)Nc1ccncc1OCC(=O)NCC(O)CN1CCc2ccccc2C1` (stereo not shown) [Compound 162]: the IC50 lay in the range of 1000 to 10000 nM. `Cc1cn(C)c2cccc(OCC(=O)NC[C@H](O)CN3CCc4ccccc4C3)c12` [Compound 163]: the IC50 is less than 100 nM. On to `Cc1cn(C)c2cccc(OCC(=O)NC[C@@H](O)CN3CCc4ccccc4C3)c12` [Compound 164], for which the IC50 was less than 100 nM. On to `O=C(NCC(O)CN1CCc2ccccc2C1)C(O)c1ccccc1` (stereo not shown) [Compound 165], for which the IC50 lay in the range of 101 to 1000 nM. Then `O=C(COC1CCCOC1)NCC(O)CN1CCc2ccccc2C1` (stereo not shown) [Compound 166], with 1000 to 10000 nM; and `O=C(COCCN1CCOCC1)NCC(O)CN1CCc2ccccc2C1` (stereo not shown) [Compound 167], with 1000 to 10000 nM. Then `Nc1ncnc2c(OCC(=O)NCC(O)CN3CCc4ccccc4C3)cccc12` (stereo not shown) [Compound 168], with less than 100 nM; and `CN(C)c1cccc(OCC(=O)NCC(O)CN2CCc3ccccc3C2)c1S(N)(=O)=O` (stereo not shown) [Compound 169], with less than 100 nM; and `CC(NC(=O)COc1ccccc1S(N)(=O)=O)C(O)CN1CCc2ccccc2C1` (stereo not shown) [Compound 170], with less than 100 nM. For the compound `O=C(COC1CCOC1)NCC(O)CN1CCc2ccccc2C1` (stereo not shown) [Compound 171], the IC50 was in the range of 1000 to 10000 nM. Then `O=C(COc1cncc(CN2CCOCC2)c1)NCC(O)CN1CCc2ccccc2C1` (stereo not shown) [Compound 172], with 101 to 1000 nM; and `CC(O)(C(=O)NCC(O)CN1CCc2ccccc2C1)c1ccccc1` (stereo not shown) [Compound 173], with 1000 to 10000 nM. As for `O=C(Cc1ccc2c(c1)OCO2)NC[C@H](O)CN1CCc2ccccc2C1` [Compound 174], the IC50 is 101 to 1000 nM. As for `O=C(CCc1nc2ccccc2[nH]1)NC[C@H](O)CN1CCc2ccccc2C1` [Compound 175, (S)-3-(1H-benzo[d]imidazol-2-yl)-N-(3-(3,4-dihydroisoquinolin-2(1H)-yl)-2-hydroxypropyl)propanamide], the IC50 was less than 100 nM. On to `CN1CCN(CCOCC(=O)NCC(O)CN2CCc3ccccc3C2)CC1` (stereo not shown) [Compound 176], for which the IC50 fell in the range of 1000 to 10000 nM. Consider `O=C(NC[C@H](O)CN1CCc2ccccc2C1)C1CNc2ccccc21` (stereo partly shown) [Compound 177], for which the IC50 lay within 101 to 1000 nM. For `O=C(CC1CCc2ccccc21)NC[C@H](O)CN1CCc2ccccc2C1` (stereo partly shown) [Compound 178], the IC50 is 101 to 1000 nM. As to `O=C(CC1Cc2ccccc2C1)NC[C@H](O)CN1CCc2ccccc2C1` [Compound 179], the IC50 lay in the range of 101 to 1000 nM. Regarding `O=C(NC[C@H](O)CN1CCc2ccccc2C1)C1CCCc2ccccc21` (stereo partly shown) [Compound 180], the half-inhibitory concentration (IC50) was 1000 to 10000 nM.

With `O=C(COc1cccc2cncnc12)NCC(O)CN1CCc2ccccc2C1` (stereo not shown) [Compound 181], the IC50 is less than 100 nM. On to `O=C(Cc1c[nH]c2ccccc12)NC[C@H](O)CN1CCc2ccccc2C1` [Compound 182], for which the IC50 lay in the range of 101 to 1000 nM. Take `O=C(NC[C@H](O)CN1CCc2ccccc2C1)C1COc2ccccc2O1` (stereo partly shown) [Compound 183]: the IC50 is 101 to 1000 nM. As for `O=C(NC[C@H](O)CN1CCc2ccccc2C1)[C@@H]1C[C@@H]2CCCC[C@@H]2N1` [Compound 184], the IC50 was in the range of 1000 to 10000 nM.

For `O=C(NC[C@H](O)CN1CCc2ccccc2C1)[C@H]1Cc2ccccc2CN1` [Compound 185], the IC50 is 101 to 1000 nM. Regarding `O=C(COc1cccc(-c2ncc[nH]2)c1)NC[C@@H](O)CN1CCc2ccccc2C1` [Compound 186], the concentration for half-maximal inhibition (IC50) lay in the range of 1000 to 10000 nM. Take `Cn1ccnc1-c1cccc(OCC(=O)NC[C@@H](O)CN2CCc3ccccc3C2)c1` [Compound 187]: the IC50 was in the range of 1000 to 10000 nM.

Turning to `O=C(COc1cccc(C(=O)NCCN2CCOCC2)c1)NC[C@@H](O)CN1CCc2ccccc2C1` [Compound 188], the IC50 lay in the range of 1000 to 10000 nM.
